Measurements published in a melting point compilation (Tetko et al.; mined from patent text by program, amines drawn as free bases though some values may be those of a salt).

SMILES	melting point [°C]
CCOC(=O)CCc1ccc(C2COc3c(C)c(C)c(NC(=O)CC(C)(C)C)c(C)c32)cc1 (stereo not given)	103 to 105
CNC1=NS(=O)N=C1NCCCNc1ncc(Br)cc1C (stereo not given)	211 to 212
OC(COc1ccccc1Cl)(Cn1cncn1)Cn1cncn1	95
CN(C)C(=O)c1nc(-c2ccccc2)nc2c1c1cc(Cl)ccc1n2C	222 to 224
CCCCCCCCCCCCCCCCCCOc1cc(C(=O)OC)cc([N+](=O)[O-])c1	64 to 66
CN(N=Cc1cnc[nH]1)C(=O)c1[nH]c2ccccc2c1-c1ccccc1	248 to 250
COc1cc(OC)c(-c2nc3cccnc3[nH]2)cc1C=CC(=O)c1ccc(C(=O)O)cc1	222 to 224
Cc1csc(-c2ccc3nnn(Cc4ccc5ncccc5c4)c3n2)c1	153 to 156
COc1ccc(CCNC(=O)C(=O)NCc2ccc(NC(C)=O)cc2)cc1OC1CCCC1	235 to 236
COc1ccc(C(C)(O)c2cc(OCc3ccccc3)ccc2OC)cn1 (stereo not given)	53 to 54
CN(C)c1ccc(CSC2=NC(C)(C)C(SCc3ccc(N(C)C)cc3)=N2)cc1	91 to 92
CCCCCCCCCCCCCCCCO[C@@H]1CCCO[C@H]1CO (relative stereo)	41 to 42
CC1CCCC(C)N1Cc1ccc2cc(NC(=O)c3ccc(-c4ccc(F)cc4)cc3)ccc2n1 (stereo not given)	187 to 188
Cc1nc(-c2ccccc2C(F)(F)F)c(-c2ccccc2C(F)(F)F)o1	100 to 102
COc1ccc(CCNC[C@H](O)COc2ccc(-c3nc(C(C)=O)c[nH]3)cc2)cc1OC	138 to 142
CCOC(=O)N1CCC(N(Cc2ccccc2)C(=S)Nc2ccccc2[N+](=O)[O-])CC1	140
Cc1cccc(S(=O)(=O)n2cccn2)c1C#N	99 to 104
CCOC(=O)C(=O)Nc1nccc2snc(NC(=O)C(=O)OCC)c12	168
CC(C)[C@H](NC1CCCCC1)C(=O)O	> 300
OCc1ccccc1CCc1ccc(Br)cc1	72 to 75.5
CC(=O)NCCNc1ccc(C2=NNC(=O)CC2C)cc1[N+](=O)[O-] (stereo not given)	222
CCOC(=O)Cn1cnc2ccccc21	63 to 64
CC(C)(C)NC(=O)[C@@H]1[C@@H](O)CCN1C(=O)OC(C)(C)C	122 to 124
COc1ccc2c(c1)c1c(n2C(=O)c2ccc(F)cc2)CCC(C(=O)O)C1 (stereo not given)	258 to 260

SMILES	melting point [°C]
COC(=O)CNC(=O)c1cc(Cl)nc(Cl)c1	140 to 141
CCOC(=O)c1c(N2CCN(C(=O)c3cccs3)CC2)c2ccccc2[nH]c1=O	198
CC(C)(C)c1ccc(S(=O)(=O)/C=C/c2ccccc2)cc1	95
CC(O)c1ccc2c(c1)ncn2-c1cccc(-c2cccnc2O)c1 (stereo not given)	133 to 137
COc1ccccc1CCNC(=S)Nc1nc2ccccc2[nH]1	176 to 184
CCOc1ccc(C2=NC(=O)C(C)(C(C)C)N2)nc1 (stereo not given)	143 to 145
c1ccc(-c2ccc(NCc3nccc(-c4ccc(-c5ccc(N(c6ccccc6)c6ccccc6)cc5)cc4)n3)cc2)cc1	224 to 225
COc1ccc(NC(=O)Nc2nc3nc(NCCCN4CCN(C)CC4)ncc3cc2-c2c(Cl)cccc2Cl)cc1	93.5 to 100
Clc1cnc2c(-c3ccccc3)nc(Cl)nc2c1	140 to 141
CCCCc1nn(-c2cc(C(=O)OC)ccc2Cl)c(=O)n1Cc1ccc(-c2ccccc2S(=O)(=O)NC(C)(C)C)cc1	65 to 67
Cc1ccccc1C(CCC(=O)NS(=O)(=O)c1ccccc1)Oc1cc(OCc2ccsc2)ccc1C#N (racemic)	68 to 70
COc1cc(C2c3cc4c(cc3C(NC(=O)CNCCN(C)C)C3COC(=O)C23)OCO4)cc(OC)c1O (stereo not given)	230
O=C(NNC(=O)C(F)(F)F)C(F)(F)F	173 to 175
CCOC(=O)CC(O)CC(O)C=Cc1c(-c2ccccc2)ccnc1C (stereo not given)	85 to 86
FC(F)(F)CNc1nc(Cl)nc(Cl)n1	115 to 118
N#Cc1c(N)oc2ccccc2c1=O	315 to 320
CCc1cccc2[nH]c3c(c12)CC(N(C)C)CC3 (stereo not given)	157 to 161
COc1cc(Oc2cccc(C)n2)c(C=CC(=O)c2ccc(S(N)(=O)=O)cc2)cc1-c1cccs1	164 to 165
O=C(NO)[C@H](CNS(=O)(=O)c1ccc(OCC2CC2)cc1)N1CCOCC1	147
CN1C(=O)Nc2ccc(Cl)cc2C1(C#CC1(C)CC1)C(F)(F)F (stereo not given)	206 to 208
O=C(O)c1ccc(CCNC(=O)C2Cc3ccccc3N2S(=O)(=O)c2ccc(-c3cccc(C(F)(F)F)c3)cc2)cc1 (stereo not given)	106
COC(=O)CSCNC(=O)c1ccccc1	65 to 68
CCOC(=O)c1ccc(-c2ccc(OCCCNC)c(-c3ccc4c(c3)C(C)(C)CCC4(C)C)c2)cc1	141
C#CCOc1nc(N)c(C(F)(F)F)cc1Cl	56 to 58

SMILES	melting point [°C]
COc1ccc(C(=O)C(O)c2ccccc2)cc1 (stereo not given)	99 to 101
COc1ccnc(CS(=O)c2nc3cc(OC(F)F)ccc3n2S(=O)(=O)c2ccc(Cl)cc2)c1OC (stereo not given)	82 to 83
Cc1cc(-n2ccnc2)c2cccc(OCc3c(Cl)ccc(S(=O)(=O)N4CCC(CO)CC4)c3Cl)c2n1	100
CCOc1ccccc1OCC(O)CCN1C(=O)c2ccccc2C1=O (stereo not given)	93 to 95
Cn1c(C=O)nnc1NCCCOc1cccc(CN2CCCCC2)c1	157 to 158
O=C(c1ccc(Cl)cc1)c1cc(-c2ccncc2)c(N2CCOCC2)s1	176
Cc1sc(C)c(CC#N)c1CC#N	124 to 126
Cc1ccc(C(=O)Nc2cc(F)ccc2F)cc1	108 to 110
CCOC1CC2(C)C(CCC3C4CCC(C(=O)OC)C4(C)CC(NC4CCCCC4)C32)CC1O (stereo not given)	110 to 112
COc1cc2c(cc1O)CCN(C(=O)c1cc(OC)c(OC)c(OC)c1)C2	172 to 173
N#CC1=CC2(CCSCC2)Oc2ccc([N+](=O)[O-])cc21	175 to 176
CCc1c(Cl)ccc2c1C=C(C(=O)O)C(C(F)(F)F)O2 (stereo not given)	172
CC(=O)OC1C=CC2(C)C(=CCC3C2CCC2(C)C(C(C)CCCC(C)C)CCC32)C1 (stereo not given)	73 to 75
COC(=O)[C@@H]1C[C@H](OC(=O)c2cc3ccccc3o2)C(=O)[C@H]2[C@@]1(C)CC[C@H]1C(=O)O[C@H](c3ccoc3)C[C@]21C	226 to 227
Cc1nc(N2C(=O)N(Cc3ccc(F)cc3)C[C@@H]2C)sc1C(N)=O	197 to 198
CCOC(=O)Cn1c(=O)n(Cc2ccc(Cl)c(Cl)c2)c(=O)c2c(C)c(Cl)sc21	141 to 145
CC(=O)Oc1ccc(C=CC(=O)NC2CCc3ccccc32)cc1[N+](=O)[O-] (stereo not given)	177 to 178
CCCc1c(SCCCOc2ccc(C#N)cc2)ccc(C(C)=O)c1O	90 to 92
CCOC(=O)C1=C(C)NC(C)=C(C(=O)OCC)C1c1cc2ccccc2s1	167 to 169
CC(C)(CN1CCC(CNC(=O)N2C(=O)C3(CCCC3)c3ccccc32)CC1)C(=O)O	189
C=CCOc1cc(CNc2nc(C)nc(C)c2Cl)ccc1OCc1ccccc1	94 to 96
COc1ccc(NN)cc1F	46 to 50
CS(=O)(=O)Nc1ccc(-c2ccc(C(=O)NCCCCN3CCC(c4ccc5c(c4OCCO)CCCC5)CC3)cc2)cc1	216
Oc1ccc(-c2nc(-c3ccc(Br)cc3)nc(-c3ccc(O)cc3O)n2)c(O)c1	222 to 224

SMILES	melting point [°C]
CC(C)C(OCCc1ccc(-c2ccc(Cl)cc2)cc1)C(=O)O (stereo not given)	91 to 92
COc1cc(C(=O)Nc2ccc3c(c2)CCN(C)C3)cc(OC)c1OC	234 to 235
O=[N+]([O-])c1ccc(-c2nc(-c3ccc([N+](=O)[O-])cc3)c(-c3ccc([N+](=O)[O-])cc3)[nH]2)cc1	320 to 322
CC1=C(C#N)C(c2cccc3ncc(-c4ccccc4)cc23)C(C(=O)OC(C)C)=C(N)N1 (stereo not given)	227 to 229
CC(C)Cn1cnc2c(Cl)nc3ccccc3c21	134 to 136
Oc1ccc(-c2nc(-c3ccc(O)cc3O)nc(-c3cccn3Cc3ccccc3)n2)c(O)c1	> 275
OCC(O)COc1ccccc1OCc1ccccc1 (stereo not given)	81 to 82.5
Clc1ccc(C(c2ccccc2)(c2ccccc2)n2ccnc2)cc1	125
CCCCn1c(=O)c(NC(=O)Nc2c(C(C)C)cc(NCc3cccnc3)cc2C(C)C)c(-c2cccc(OC)c2)c2cccnc21	160 to 161
CN(C)C1CCN(C(=O)c2ccc(-c3[nH]nc4c3C(=O)c3c(NC(=O)NN5CCOCC5)cccc3-4)s2)CC1	185 to 186
Cc1c(-c2ccc(O)cc2)sc(C=O)c1-c1ccc(O)c(Cl)c1	234 to 236
CC(=O)c1ccc(OCc2ccccc2)c2ncccc12	131 to 133
O=C(Nc1ccc(C(=O)N2Cc3ccccc3Cc3ccccc32)cc1)c1ccccc1	219 to 221
O=C(CN1CC2C(=O)N(c3cc(Cl)cc(Cl)c3)C(=O)C2C1)c1ccc(Br)cc1 (stereo not given)	150
CN(C)C(=O)Oc1cccc2c1CC[C@H]1[C@H]2CCN1CCC1CCCCC1	110 to 112
CN1CCN(c2c(F)c(N)c3c(=O)c(C(=O)O)cn(C4CC4)c3c2F)CCC1=O	281 to 283
CC(=O)Nc1ccc(C(C)(C)C)cc1CN(C)C1CCCCC1	111 to 112
COc1ccc(C(=O)Cc2ccc3c(c2)OCO3)cc1OC	110 to 111
OCc1ccc(Cl)cc1C(O)c1ccccc1 (stereo not given)	102 to 107
CC(C)Cn1c(C(=O)OC(C)(C)C)c(O)c2cc(OCc3ccccc3)ccc2c1=O	133 to 134
COc1ccc(CN2C(=O)C(C)(c3cc(CO)ccc3Cl)c3cc(Cl)ccc32)c(OC)c1 (stereo not given)	97
COC(=O)CCCc1cc2nc(Cl)ccc2n1S(=O)(=O)c1cc(F)cc(F)c1	90
NC(=O)Cc1cc(Oc2ccc3c(ccn3C(=O)Nc3cc(N4CCOCC4)cc(C(F)(F)F)c3)c2)ncn1	144 to 146
